Measured values taken from patent US20260185169A1, “MOLECULAR SIGNATURES TO PREDICT LONG-TERM LIVER FIBROSIS PROGRESSION” (THE BOARD OF REGENTS OF THE UNIVERSITY OF TEXAS SYSTEM, priority 2022, published 2026).

Assays:
clinical PCLS tissues = assay: FPS/PLS response (CES, nCounter) in organotypic ex vivo culture of clinical PCLS tissues; format: cell-based, human
Description: Evaluation of galunisertib, erlotinib, AM095, bortezomib, pioglitazone, metformin, epigallocatechin gallate (EGCG), I-BET 151, JQ1, captopril, nizatidine (Selleck Chemicals); MG-132 (Sigma-Aldrich); cenicriviroc (AbbVie) (Table 2) were done in organotypic ex vivo culture of precision-cut liver slice (PCLS) tissues in the FPS validation set 2 as previously described. Patient-derived liver cell spheroids were generated from a cirrhosis patient and high-risk FPS was induced by free fatty acids, and treated with EGCG, bortezomib, cenicriviroc, and/or bezafibrate for 48 h. Mycoplasma-free human hepatic myofibroblast cell lines, LX-2 and TWNT-4, were cultured with MG-132 (20 μM) or DMSO control for 12 and 24 h in triplicates.
Total RNA was isolated from fixed tissue sections by using High Pure RNA Paraffin kit (Roche), and assessed for quality by qRT-PCR of RPL13A. Total RNA from the PCLS tissues was isolated using RNeasy kit (Qiagen). RNA samples (100-200 ng) were subjected to the PLS/FPS assay implemented in the nCounter platform (NanoString), and transcriptome profiling of the CENTAUR trial samples was performed by RNA-Seq (TrueSeq RNA Access, Illumina). Expression of BCL2, COL1A1, and ACTA2 genes was measured by qRT-PCR (Table 3). Serum protein profiling was performed by using xMAP assay (Luminex).
Total RNA was isolated from three to five 10-μm-thick formalin-fixed paraffin-embedded (FFPE) tissue sections from the PLS/FPS derivation/validation cohorts by using High Pure RNA Paraffin kit (Roche), and lack of severe RNA fragmentation was confirmed by qRT-PCR of a housekeeping gene RPL13A as previously described.^1 From freshly harvested myofibroblast cell lines, LX-2 and TWNT-4, and clinical precision-cut-liver slice (PCLS) tissues stored in RNAlater (ThermoFisher) at −80?C, total RNA was isolated using RNeasy kit (Qiagen), and the RNA integrity number (RIN)>8 by Bioanalyzer (Agilent) was regarded as sufficient quality for expression analysis. Total RNA samples (100 to 500 ng) were subjected to the gene signature assays implemented in the digital transcript counting technology (NanoString) according to manufacturer's instruction. Poor quality profiles were detected based on maximum signal intensity from positive control probes <3,000U. Raw transcript count data were log-transformed (base 2) and scaled by geometric mean of control probe data by using NanoString normalizer module implemented in GenePattern data analysis suite (www.broadinstitute.org/genepattern). Genome-wide transcriptome profiling of the CENTAUR trial samples was performed using 100 to 200 ng total RNA by RNA-Seq using exome-enriched library preparation according to the manufacturer's protocol (TrueSeq, Illumina). Raw sequencing reads were mapped onto the reference human genome (hg19) by using the STAR aligner (ver. 2.6.1b) followed by the read counting on genes via featureCounts in the Subread package (ver. 1.6.1). The raw read counts were further normalized by using the Relative Log Expression (RLE) implemented in the DESeq2 package (ver. 1.22.2). Expression of COL1A1, and ACTA2, and BCL2 genes was measured by qRT-PCR (BioRad) using ddCt method with RPL13A as housekeeping gene, as previously described (refer Table 3 for the primer sequences). Gene expression profiles of the PLS/FPS-inducible cell culture model (cell-culture-derived PLS [cPLS] system) treated with erlotinib, pioglitazone, captopril, and resveratrol were obtained from our previous study (GSE81801).

[1] = tested on: NASH patients with F1 to F3 fibrosis; assay: Histological fibrosis change after 1-year treatment in phase IIb CENTAUR trial; format: in vivo, human; conditions: cenicriviroc arm n=9, 1-year treatment
[2] = tested on: NASH patients with F1 to F3 fibrosis; conditions: phase IIb CENTAUR trial, 1-year treatment; cited from earlier work

CCCCOCCOc1ccc(-c2ccc3c(c2)/C=C(/C(=O)Nc2ccc([S@@+]([O-])Cc4cncn4CCC)cc2)CCCN3CC(C)C)cc1 [Cenicriviroc]
FPS response rate (number of responding patients) (clinical PCLS tissues; count of patients with CES-based FPS response, PCLS cultured 24 h with agent vs vehicle): 4
PLS response rate (number of responding patients) (clinical PCLS tissues; count of patients with PLS response, ex vivo PCLS culture): 7
patients with improvement of fibrosis in the year 1 biopsy [1]: 4 patients
histological fibrosis [2]: improved histological fibrosis
